{"source": "patent US5441983A", "about": "“Treatment of infection by enveloped virus with calix(N)arene compounds” (Genelabs Incorporated, priority 1992, dated 1995)", "key": {"[1]": {"test_system": "HIV-HXB", "test": "Inhibition of syncytia formation, HIV-HXB (HTLV-IIIB)", "details": "Human immunodeficiency virus 1, 18 h, read-out: HIV-HXB ED100, complete inhibition of syncytia formation"}, "[2]": {"test_system": "HIV-RF-II", "test": "Inhibition of syncytia formation, HIV-RF-II", "details": "Human immunodeficiency virus 1, 18 h, read-out: HIV-RF-II ED100, complete inhibition of syncytia formation", "method": "Briefly, cells chronically infected with HTLV-IIIB or RF-II HIV strains were incubated in the presence of serial dilutions of the selected KY compound, then further cocultured with indicator cells. The extent of syncytia formation was scored under phase microscopy.\nRepresentative calix(n)arene compounds from Table 2 were tested for inhibition of cytopathic effects in cells infected with one of two HTLV-III strains, HTLV-IIIB and RF-II strains, as described in Example 12, and in the subsection above.\nHuman CD4^+ indicator cells (VB) and chronically infected H9 cells were maintained in RPMI-1640 medium supplemented with 5% fetal calf serum, 100 Units of penicillin per ml and 100 μg of streptomycin per ml at 37° C. in a humidified incubator containing 7% CO2.\nFor the fusion assay, serial dilutions between 1:2 and 1:2^8 of a selected KY compound, 1 mg/ml in PBS were made in a 96 well round bottom plate. The diluted KY compound was transferred to a 96 well flat-bottom plate. To each well was added 25 μg chronically infected H9 cells (at 2×10^6, cells/ml), or cells chronically infected with RF-II strain HIV, followed by incubation at 37° C. for 45 minutes. To each well was then added 25 μl VB cells (about 5×10^4 cells), and the cells and virus isolates were cocultured for 18 hours in a humid 5% CO2 atmosphere."}, "[3]": {"test_system": "HSV-2", "test": "Plaque reduction assay, HSV-2, Vero cells", "format": "cell-based, HSV-2 (333)", "details": "Human alphaherpesvirus 2, Vero", "protocol": "(§1) used in Table 3 were further tested for activity against HSV infection in\n(§2) a plaque reduction assay, as detailed in Example 6. Here Vero cells, after\n(§3) overnight incubation, were exposed to serial dilutions of KY compound,\n(§4) from 0.625-10 μg/ml, and HSV-1 or HSV-2 virus for two hours. After\n(§5) washing to remove drug and extracellular virus, the cells were further\n(§6) incubated for 2 days, then stained and counted for plaque formation.\n(§7) Percent inhibition was determined by dividing plaques produced by total\n(§8) number of plaques in infected, untreated controls. From the concentration\n(§9) effect curve of plaque inhibition (expressed as percent of control), the\n(§10) concentration of compound required to produce 50% plaque reduction,\n(§11) IC50, was determined. The IC50 values for infection by HSV-1 and\n(§12) HSV-2 infection is given in the right-hand columns in Table 3. With"}, "[4]": {"test_system": "HSV-1", "test": "Plaque reduction assay, HSV-1, Vero cells", "format": "cell-based, HSV-1 (Kos-1)", "details": "Human alphaherpesvirus 1, Vero, plaque reduction, Vero cells", "protocol": "as §1, §2, §3, §4, §5, §6, §7, §8, §9, §10, §11, §12"}, "[5]": {"test_system": "Influenza A (Taiwan)", "test": "Inhibition of influenza A cytopathic effect (clumping) in MDCK cells", "format": "cell-based, Influenza A virus (A/Taiwan strain)", "details": "Influenza A virus, 24 h, 50% reduction in percent clumped cells, read-out: ED50 Influenza A (Taiwan)", "protocol": "With virus infection, a cytopathic effect characterized by cell clumping is observed. For each compound tested, drug concentrations of 0.1, 1, 10, 25, and 100 μg/ml were added to cultured cells at the time of virus infection, as detailed in Examples 9 and 11. […] The inhibition of clumping was plotted as a function of drug concentration, to determine the dose effective to produce a 50% reduction in the percent clumped cells, measured with respect to control (no drug treatment).\nAssays to assess the antiviral activity of KY- and Y-compounds in tissue culture were performed in 96-well flat-bottom tissue culture plates (Falcon 307), using conditions similar to those used in the cytotoxicity assays described above. In these assays, compound was tested in quadruplicate by serially diluting the compound in 2% FCS-MEM using serial two-fold dilutions (0.05 ml/well). A 0.05 ml volume of the appropriate virus containing approximately 100 median tissue culture infectious doses (TCID50) was then added to all wells except those set aside as antiviral and tissue control wells. Next, approximately 3×10^3 HEp2 cells (0.1 ml) were added to each well. Control wells containing antiviral and no virus (antiviral control), containing virus but no antiviral (virus control), or containing medium without virus or antiviral (tissue control), were included in each test. The challenge virus was then back titrated. All assay plates were incubated at 35° C. for 5 to 7 days in a 5% CO2 incubator.\nThe anti-influenza A activity of KY compounds was evaluated as described in Example 9, except that MDCK cells (kidney cell line) was used for infection in vitro by influenza virus (strain A/Taiwan)."}, "[6]": {"test_system": "RSV", "test": "Inhibition of RSV cytopathic effect in HEp2 cells", "format": "cell-based", "details": "human respiratory syncytial virus, HEp-2; HEp2 cells, cytopathic effect; read-out: ED50 RSV"}, "[7]": {"test_system": "HSV-1 or HSV-2", "test": "Inhibition of HSV cytopathic effect (CPE) in Vero cells", "details": "10-20 μg/ml", "method": "In the method reported in Example 5, Vero cells were infected with HSV-1 or HSV-2 and allowed to grow in culture until cytopathic effects were clearly visible. In the absence of infection, the cells form an even monolayer of fibro-blastlike cells. With HSV infection, a cytopathic effect characterized by round cells in suspension is clearly evident after 24 hours, followed by clumping and lysis of infected cells after 24-72 hours.\nIn the drug inhibition study reported in Example 5, cells were exposed to HSV-1 or HSV-2 virus and, at the same time, to a selected aryl macrocyclic compound, at a final drug concentration of 10 μg/ml. Twenty-four hours later the cells were examined for cytopathic effect.\nVero cells were maintained in RPMI-1640 medium supplemented with 5% fetal calf serum, 100 Units of penicillin per ml and 100 μg of streptomycin per ml at 37° C. in a humidified incubator containing 7% CO2. The HSV strains HSV-1 (Kos-1) and HSV-2 (333) were used.\n1×10^5 Vero cells were plated in each well of a 96 well microtitre plate in 0.2 ml RPMI-1640 medium containing 5% FCS and 0.1% methyl cellulose (15 cps). After overnight incubation, and cell doubling, the medium was aspirated and replaced with 100 .1 of the same medium containing 2% FCS, and 50.1 control or drug solution to a final drug concentration of 10 μg/ml and 50 μl virus, containing about 3 PFU/cell, i.e., 6 x 10^s PFU/well, of HSV-1 or HSV-2.\nThe cells were cultured for 24 hours at 37° C. at which time cytopathic effects are clearly visible. In the absence of viral infection, the cells form an even monolayer of fibroblast cells. With viral infection, the cells form a suspension of round cells, followed by cell clumping, whose appearance is easily distinguishable from normal fibroblast cells. If no detectable cytopathic effect was produced, the test was repeated with 10 μg/ml. A parallel set of cells without virus inoculation were done as a control for cytotoxicity to Vero cells."}, "[8]": {"test_system": "HSV-2 333", "test": "Inhibition of viral yield, wild type HSV-2 333", "details": "Human alphaherpesvirus 2, HeLa, read-out: ID90", "method": "(§13) These compounds tested were the nucleoside analogs acyclovir (ACV), ganciclovir (DHPG), phosphonoformate (PFA), and phosphomethoxyethyladenine (PMEA). Inhibition of viral yield was determined, as above, by infecting Hela cells in the presence of wild type or drug-resistant strains of HSV-1 or HSV-2, and serial dilutions of a selected anti-viral compound, and infecting Vero cells with serial dilutions of the Hela cell lysate, as above.\n(§14) The KOS (HSV-1) and 333 (HSV-2) are wild type viruses; the KOS(PMEA)' and KOS(PFA)' are drug-resistant HSV-1 strains having a DNA polymerase mutation. The 333(DHPG) strain is a drug-resistantHSV-2 strain having a thymidine kinase mutation.\n(§15) The following strains of HSV-1 and HSV-2 virus were used: KOS, a wild type HSV-1 virus; KOS (PMEA) and KOS (PFA), both drug-resistant HSV-1 viruses having a DNA polymerase mutation; 333, a wild type HSV-2 HSV-2 virus, and 333 (DHPG), a drug-resistant HSV-2 virus having a thymidine kinase mutation.\n(§16) After growth at 37° C. for 24 hours in 2 ml of RPMI-1640 containing 2% FCS and penicillin and streptomycin (P/S), the cells were frozen at -70° C. until the time for titration. The cells were freeze/thawed 3 times to release virus from the cells, serially diluted 10 fold, and the serial dilutions were added to Vero cells in culture. After 2 hours incubation at 37° C. the virus was removed and 0.5 ml methycellulose (4K cps) in RPMI-1640 and 2% FCS+P/S was added. Two days later, the medium was removed. The cells were stained in 0.8% crystal violet in 50% ethanol. The plaques formed were counted and the titer was calculated from the fold of dilutions. From the drug dose response, the concentration of each drug required to effect a 90% inhibition of virus yield, the IC90 concentration was determined."}, "[9]": {"test_system": "HSV-1 KOS", "test": "Inhibition of viral yield, wild type HSV-1 KOS", "details": "Human alphaherpesvirus 1, HeLa, read-out: ID90", "method": "as §13, §14, §15, §16"}, "[10]": {"test_system": "HSV-1 KOS (PFA)'", "test": "Inhibition of viral yield, drug-resistant HSV-1 KOS(PFA)'", "details": "Human alphaherpesvirus 1, HeLa, read-out: ID90", "method": "as §13, §14, §15, §16"}, "[11]": {"test_system": "HSV-2 333 (DHPG)'", "test": "Inhibition of viral yield, drug-resistant HSV-2 333(DHPG)'", "details": "Human alphaherpesvirus 2, HeLa, read-out: ID90"}, "[12]": {"test_system": "HSV-1 KOS(PMEA)'", "test": "Inhibition of viral yield, drug-resistant HSV-1 KOS(PMEA)'", "details": "Human alphaherpesvirus 1, HeLa, read-out: ID90", "method": "as §13, §14, §15, §16"}}, "data": [{"smiles": "O=S(=O)(O)c1c2c(O)c3c(O)c(c(S(=O)(=O)O)c(Br)c3c1Br)Cc1c(S(=O)(=O)O)c(Br)c3c(Br)c(S(=O)(=O)O)c(c(O)c3c1O)Cc1c(S(=O)(=O)O)c(Br)c3c(Br)c(S(=O)(=O)O)c(c(O)c3c1O)Cc1c(S(=O)(=O)O)c(Br)c3c(Br)c(S(=O)(=O)O)c(c(O)c3c1O)C2", "note": "[KY-194]", "values": [{"measurement": "EC100", "setting": "[1]", "result": 63, "unit": "µg/mL"}, {"measurement": "EC100", "setting": "[2]", "result": 125, "unit": "µg/mL"}, {"measurement": "IC50", "setting": "[3]", "result": 1, "unit": "µg/mL"}, {"measurement": "IC50", "setting": "[4]", "result": 1, "unit": "µg/mL"}, {"measurement": "EC50", "setting": "[5]", "result": 7.9, "unit": "µg/mL"}, {"measurement": "EC50", "setting": "[6]", "result": 0.5, "unit": "µg/mL"}]}, {"smiles": "CNS(=O)(=O)c1cc2cc(S(=O)(=O)NC)c3c(O)c2c(O)c1Cc1c(S(=O)(=O)NC)cc2cc(S(=O)(=O)NC)c(c(O)c2c1O)Cc1c(S(=O)(=O)NC)cc2cc(S(=O)(=O)NC)c(c(O)c2c1O)Cc1c(S(=O)(=O)NC)cc2cc(S(=O)(=O)NC)c(c(O)c2c1O)C3", "note": "[KY-147]", "values": [{"measurement": "EC100", "setting": "[1]", "result": 250, "unit": "µg/mL"}, {"measurement": "EC100", "setting": "[2]", "result": 250, "unit": "µg/mL"}, {"measurement": "IC50", "setting": "[3]", "result": "> 10", "unit": "µg/mL"}, {"measurement": "IC50", "setting": "[4]", "result": "> 10", "unit": "µg/mL"}, {"measurement": "protection from CPE, in words", "setting": "[7]", "result": "low activity"}]}, {"smiles": "Nc1nc(O)c2ncn(COC(CO)CO)c2n1", "note": "[DHPG, ganciclovir]", "values": [{"measurement": "IC90", "setting": "[8]", "result": 2, "unit": "µM"}, {"measurement": "IC90", "setting": "[9]", "result": 2, "unit": "µM"}, {"measurement": "IC90", "setting": "[10]", "result": 1, "unit": "µM"}, {"measurement": "IC90", "setting": "[11]", "result": 215, "unit": "µM"}]}, {"smiles": "O=C(O)P(=O)(O)O", "note": "[PFA, phosphonoformate]", "values": [{"measurement": "IC90", "setting": "[8]", "result": 150, "unit": "µM"}, {"measurement": "IC90", "setting": "[12]", "result": 3000, "unit": "µM"}, {"measurement": "IC90", "setting": "[9]", "result": 180, "unit": "µM"}, {"measurement": "IC90", "setting": "[10]", "result": "> 1000", "unit": "µM"}]}, {"smiles": "CCNS(=O)(=O)c1cc2cc(S(=O)(=O)NCC)c3c(O)c2c(O)c1Cc1c(S(=O)(=O)NCC)cc2cc(S(=O)(=O)NCC)c(c(O)c2c1O)Cc1c(S(=O)(=O)NCC)cc2cc(S(=O)(=O)NCC)c(c(O)c2c1O)Cc1c(S(=O)(=O)NCC)cc2cc(S(=O)(=O)NCC)c(c(O)c2c1O)C3", "note": "[KY-148]", "values": [{"measurement": "EC100", "setting": "[1]", "result": 250, "unit": "µg/mL"}, {"measurement": "protection from CPE, in words", "setting": "[7]", "result": "low activity"}]}, {"smiles": "COc1c2c(S(=O)(=O)O)cc3cc(S(=O)(=O)O)c(c(OC)c13)CN(C)Cc1c(S(=O)(=O)O)cc3cc(S(=O)(=O)O)c(c(OC)c3c1OC)CN(C)Cc1c(S(=O)(=O)O)cc3cc(S(=O)(=O)O)c(c(OC)c3c1OC)CN(C)Cc1c(S(=O)(=O)O)cc3cc(S(=O)(=O)O)c(c(OC)c3c1OC)CN(C)C2", "note": "[KY-395]", "values": [{"measurement": "protection from CPE, in words", "setting": "[7]", "result": "low activity"}]}, {"smiles": "C=CC1c2c(S(=O)(=O)O)cc3cc(S(=O)(=O)O)c(c(O)c3c2O)C(C=C)c2c(S(=O)(=O)O)cc3cc(S(=O)(=O)O)c(c(O)c3c2O)C(C=C)c2c(S(=O)(=O)O)cc3cc(S(=O)(=O)O)c(c(O)c3c2O)C(C=C)c2c(S(=O)(=O)O)cc3cc(S(=O)(=O)O)c1c(O)c3c2O", "note": "(stereo not drawn) [KY-97]", "values": [{"measurement": "EC100", "setting": "[1]", "result": 32, "unit": "µg/mL"}, {"measurement": "IC50", "setting": "[3]", "result": "> 10", "unit": "µg/mL"}, {"measurement": "IC50", "setting": "[4]", "result": "> 10", "unit": "µg/mL"}, {"measurement": "EC50", "setting": "[5]", "result": 5, "unit": "µg/mL"}, {"measurement": "EC50", "setting": "[6]", "result": 0.5, "unit": "µg/mL"}]}]}
